This note sets out measurements from patent publication US5955576A, “Inhibitors of thrombosis” (Corvas International, Inc., priority 1995, dated 1999).

The target in one data set is plasmin (Homo sapiens, UniProt P00747). The data set is described as follows: Plasmin assay, chromogenic substrate S-2251. Type of data set: biochemical. As to conditions: purified human enzyme, 30 minute incubation, HBSA pH 7.5. As for the experimental part: (§1) The buffer used for all assays was HBSA (10 mM HEPES, pH 7.5, 150 mM sodium chloride, 0.1% bovine serum albumin). […] Following a 30 minute incubation at ambient temperature, 50 μL of the substrate at the concentrations specified below, was added to the wells yielding a final total volume of 200 μL. The initial velocity of chromogenic substrate hydrolysis was measured by the change in absorbance at 405 nm using a Thermo Max® Kinetic Microplate Reader over a 5 minute period in which less than 5% of the added substrate was utilized.
plasmin, sequence (P00747 581-810 limits assumed): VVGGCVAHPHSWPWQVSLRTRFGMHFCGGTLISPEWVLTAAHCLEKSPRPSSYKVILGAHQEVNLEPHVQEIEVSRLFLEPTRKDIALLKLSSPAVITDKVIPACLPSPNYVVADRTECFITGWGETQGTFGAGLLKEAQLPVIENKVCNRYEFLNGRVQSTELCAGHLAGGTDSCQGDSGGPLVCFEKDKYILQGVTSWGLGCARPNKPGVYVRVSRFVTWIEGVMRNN
plasmin, sequence (P00747 97-580 partner limits assumed): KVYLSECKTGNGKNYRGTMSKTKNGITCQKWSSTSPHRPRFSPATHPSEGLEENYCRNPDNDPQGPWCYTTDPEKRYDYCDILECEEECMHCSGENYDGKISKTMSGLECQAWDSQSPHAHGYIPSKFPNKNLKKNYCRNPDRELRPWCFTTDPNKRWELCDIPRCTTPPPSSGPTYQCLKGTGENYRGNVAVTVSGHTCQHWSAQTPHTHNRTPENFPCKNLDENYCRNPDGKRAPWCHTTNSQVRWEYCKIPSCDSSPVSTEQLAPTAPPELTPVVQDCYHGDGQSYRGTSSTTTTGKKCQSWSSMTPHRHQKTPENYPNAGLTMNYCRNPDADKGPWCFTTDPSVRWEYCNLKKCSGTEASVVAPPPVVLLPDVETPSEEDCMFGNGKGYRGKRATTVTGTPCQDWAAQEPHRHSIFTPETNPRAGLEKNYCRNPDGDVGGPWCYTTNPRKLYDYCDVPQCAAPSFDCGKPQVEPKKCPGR
Plasmin catalytic activity was determined using the chromogenic substrate, S-2251 [D-valyl-L-leucyl-L-lysine-p-nirtoanilide dihydrochloride], which was obtained from Kabi Diagnostica.

The target of a further data set is T1, factor Xa (Homo sapiens, UniProt P00742).
T1 construct: Human factor Xa was prepared from purified human factor X obtained from Enzyme Research Laboratories; purchased Enzyme Research Laboratories
T1 sequence (P00742 235-488 limits assumed): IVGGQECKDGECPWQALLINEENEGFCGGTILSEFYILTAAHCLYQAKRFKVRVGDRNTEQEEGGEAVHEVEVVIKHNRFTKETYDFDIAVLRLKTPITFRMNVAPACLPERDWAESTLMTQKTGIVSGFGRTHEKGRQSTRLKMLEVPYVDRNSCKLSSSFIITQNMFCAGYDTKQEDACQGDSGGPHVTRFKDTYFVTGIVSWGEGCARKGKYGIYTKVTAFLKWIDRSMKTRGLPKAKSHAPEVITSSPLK
T1 sequence (P00742 41-179 partner limits assumed): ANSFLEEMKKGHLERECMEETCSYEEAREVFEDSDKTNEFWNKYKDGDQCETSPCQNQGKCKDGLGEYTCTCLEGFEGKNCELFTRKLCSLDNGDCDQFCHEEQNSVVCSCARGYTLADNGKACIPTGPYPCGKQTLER
Briefly: Factor Xa assay, chromogenic substrate S2765. Type of data set: biochemical. As to conditions: purified human enzyme, 30 minute incubation, HBSA pH 7.5. On the procedure:
as §1
Factor Xa catalytic activity was determined using the substrate, S2765 (N-α-benzyloxycarbonyl-D-argininyl-L-glycyl-L-arginine-p-nitroanilide dihydrochloride) which was obtained from Kabi Diagnostica. […] Human factor Xa was prepared from purified human factor X obtained from Enzyme Research Laboratories according to the method described by Bock, P. E. et al., Archives of Biochem. Biophys. 273: 375 (1989). The enzyme was diluted into HBSA prior to the assay in which the final concentration was 0.5 nM.

For another data set, the target named is thrombin (Homo sapiens, UniProt P00734). Briefly: Thrombin assay, chromogenic substrate Pefachrome t-PA. It is filed as biochemical. The following applies: purified human enzyme, 30 minute incubation, HBSA pH 7.5. On the procedure:
The buffer used for all assays was HBSA (10 mM HEPES, pH 7.5, 150 mM sodium chloride, 0.1% bovine serum albumin). […] Following a 30 minute incubation at ambient temperature, 50 μL of the substrate at the concentrations specified below, was added to the wells yielding a final total volume of 200 μL.
Thrombin catalytic activity was determined using the chromogenic substrate Pefachrome t-PA (CH3 SO2 -D-hexahydrotyrosine-glycyl-L-arginine-p-nitroaniline, obtained from Pentapharm Ltd.).

Data set [1] deals with FeCl3 -induced platelet-dependent arterial thrombosis. Type of data set: in vivo. The following applies: rat carotid artery. From the text:
Res., 60: 269-280 (1990). […] Res., 60: 269-280 (1990). […] The animals were then euthanized.

A short description of data set [2]: Pharmacokinetics after oral and i.v. administration in dogs. It is filed as in vivo, dog. On the procedure: The pharmacodynamic and pharmacokinetic parameters of the compound of Example 34 (and same compound described in Example 91) were evaluated after oral administration in dogs. Adult beagle dogs (9-12 kg) were housed individually in standard cages, and were fed a standard certified commercial diet and tap water ad libitum. Dogs were given an oral dose of either 10 mg/kg or 20 mg/kg test compound, in 55 ml deionized water, via a gastric tube, followed by a water rinse. In a separate protocol, 5 mg/kg of test compound, in 5 ml 0.9% sodium chloride, were administered by fast bolus i.v. injection through an indwelling saphenous vein catheter. The same dogs were used for all doses and both routes of administration, with a one week wash out period between use of the dogs for the different doses and protocols. […]
(§2) The blood levels of test compound were measured by extracting the compound from plasma, separation by HPLC, and post-column derivatization with a fluorogenic functional group. The clotting time of blood was measured using an APTT assay, which measures the prolongation of the activated partial thromboplastin time (APTT) by the test compound. […]
The systemic bioavailability of the test compound administered by the oral route was calculated by comparing the AUC values (area under curve describing level of compound in blood over time) after i.v. and oral administration. […]

Data set [3] deals with activated partial thromboplastin time (APTT). Briefly: APTT clotting time of blood samples after oral dosing in dogs. It is filed as in vivo, dog. As to conditions: both doses (10 and 20 mg/kg). As for the experimental part:
The pharmacodynamic and pharmacokinetic parameters of the compound of Example 34 (and same compound described in Example 91) were evaluated after oral administration in dogs. Adult beagle dogs (9-12 kg) were housed individually in standard cages, and were fed a standard certified commercial diet and tap water ad libitum. Dogs were given an oral dose of either 10 mg/kg or 20 mg/kg test compound, in 55 ml deionized water, via a gastric tube, followed by a water rinse. In a separate protocol, 5 mg/kg of test compound, in 5 ml 0.9% sodium chloride, were administered by fast bolus i.v. injection through an indwelling saphenous vein catheter. The same dogs were used for all doses and both routes of administration, with a one week wash out period between use of the dogs for the different doses and protocols.
Blood samples were collected during the experimental period from the cephalic vein using sodium citrate (0.38% final concentration) as anticoagulant (nine volumes blood to one volume sodium citrate). […]
as §2

Where two headings read alike, the source gives them in different places. Peptide text beside a SMILES is read from it. * marks the point of attachment. Hydrocinnamoyl = O=C(CCc1ccccc1)*; Tos = Cc1ccc(S(=O)(=O)*)cc1

As usually defined, the IC50 is the concentration that gives 50% inhibition. Low values mean inhibition by little substance, high ones a need for much substance. As for `N=C(N)NCCC[C@@H](C=O)NC(=O)[C@@H]1CCCN1C(=O)[C@H](CC(=O)O)NC(=O)CCC1CCCCC1` [ChxPA-Asp-Pro-Arg-al, N-(3-cyclohexanepropionyl)-L-aspartyl-L-prolyl-L-argininal], the IC50 on plasmin was 250 nM.

As for `COC(=O)C[C@H](NS(=O)(=O)c1ccc2ccccc2c1)C(=O)N1CCC[C@H]1C(=O)N[C@H](C=O)CCCNC(=N)N` [2-NpSO2 -Asp(OCH3)-Pro-Arg-al, N-(2-naphthylsulfonyl)-L-aspartyl-(β-methyl ester)-L-prolyl-L-argininal], the figures for the IC50 against factor Xa, against plasmin and at thrombin were 4.3 nM, 106 nM and 0.62 nM, respectively.

For the compound `COC(=O)C[C@H](NS(=O)(=O)c1ccc(C)cc1)C(=O)N1CCC[C@H]1C(=O)N[C@H](C=O)CCCNC(=N)N` [(4-MePh)SO2 -Asp(OCH3)-Pro-Arg-al, N-(4-methylphenylsulfonyl)-L-aspartyl-(β-methyl ester)-L-prolyl-L-argininal] (Tos-Asp(OMe)-Pro-Arg-aldehyde), the IC50 is 9.5 nM against factor Xa, 111 nM against plasmin and 1.1 nM on thrombin.

Turning to `CCCCS(=O)(=O)N[C@@H](CC(=O)OC)C(=O)N1CCC[C@H]1C(=O)N[C@H](C=O)CCCNC(=N)N` [n-BuSO2 -Asp(OCH3)-Pro-Arg-al, N-(butylsulfonyl)-L-aspartyl-(β-methyl ester)-L-prolyl-L-argininal], the results for the concentration for half-maximal inhibition (IC50) at factor Xa, against plasmin and against thrombin were 15 nM, 250 nM and 3.7 nM, respectively.

The compound `CC(C)CCC(=O)N[C@@H](CC(=O)O)C(=O)N1CCC[C@H]1C(=O)N[C@H](C=O)CCCNC(=N)N` [4MeV-Asp-Pro-Arg-al, N-(4-methylpentanoyl)-L-aspartyl-L-prolyl-L-argininal] yielded an IC50 against plasmin of 396 nM.

`N=C(N)NCCC[C@@H](C=O)NC(=O)[C@@H]1CCCN1C(=O)[C@H](CC(=O)O)NC(=O)CC1CCCCC1` [ChxAc-Asp-Pro-Arg-al, N-(1-cyclohexylacetyl)-L-aspartyl-L-prolyl-L-argininal]: the values for the 50% inhibitory concentration (IC50) against factor Xa, on plasmin and against thrombin were 15 nM, 75 nM and 47 nM, respectively.

For `N=C(N)NCCC[C@@H](C=O)NC(=O)[C@@H]1CCCN1C(=O)[C@H](CC(=O)O)NC(=O)CCc1ccccc1` [HCA-Asp-Pro-Arg-al, N-(3-phenylpropionyl)-L-aspartyl-L-prolyl-L-argininal] (Hydrocinnamoyl-Asp-Pro-Arg-aldehyde), the “Incidence of Occlusion” value in data set [1] (Group1, 25 μg/kg/min i.v. infusion) is reported as 5/6; in data set [1] (Group2, 50 μg/kg/min i.v. infusion) it was 1/5; in data set [1] (Group3, 100 μg/kg/min i.v. infusion), 0/5. This compound displayed a half-maximal inhibitory concentration (IC50) on plasmin of 481 nM.

For the compound “N-phenylsulfonyl-L-aspartyl-(β-methyl ester)-L-prolyl-L-argininal [BzlSO2 -Asp(OCH3)-Pro-Arg-al]”, the IC50 is 30 nM against factor Xa and 5 nM on thrombin.

Regarding `CCCC(CCC)C(=O)N[C@@H](CC(=O)OC)C(=O)N1CCC[C@H]1C(=O)N[C@H](C=O)CCCNC(=N)N.O=C(O)C(F)(F)F` [Example 34, N-(2-propylpentanoyl)-L-aspartyl-beta-(methyl ester)-L-prolyl-L-argininal, trifluoroacetate salt], the “time to maximum blood level of compound” value in data set [2] was in the range of 45 to 60 min. For the same compound, in data set [3], the “duration of elevated APTT” value is “up to two hours” and the “time to significant elevation of APTT” value lay within 20 to 30 min.

Consider `CCCC(CCC)C(=O)N[C@@H](CC(=O)O)C(=O)N1CCC[C@H]1C(=O)N[C@H](C=O)CCCNC(=N)N` [2PrPent-Asp-Pro-Arg-al, N-(2-propylpentanoyl)-L-aspartyl-L-prolyl-L-argininal], for which inhibition against plasmin was half-maximal at 254 nM (IC50). That is a sub-micromolar value.

For `CCCC(CCC)C(=O)N[C@@H](CC(=O)OC)C(=O)N1CCC[C@H]1C(=O)N[C@H](C=O)CCCNC(=N)N` [2PrPent-Asp(OCH3)-Pro-Arg-al, N-(2-propylpentanoyl)-L-aspartyl-β-(methyl ester)-L-prolyl-L-argininal], at plasmin, 261 nM corresponded to half-maximal inhibition (IC50).
